According to patent US9340577B2, “HLA binding motifs and peptides and their uses” (priority 1992, dated 2016):
No end group written: not given here.

What was measured:
Assay in all cases: biochemical
[1] = target: DRB1*1201 (Homo sapiens, UniProt P01903+P01911, A100R/A169T/D57E/D86V/F55L/H45Y/K41T/L162R/M171V/P40S/Q125H/Q178H/Q39Y/Q99D/R42G/S66L/T262R/V114A/V67L/W38E/Y59H/Y61H/Y89S); assay type: binding
[2] = target: DRB1*0802 (Homo sapiens, UniProt P01903+P01911, A100R/A103L/A169T/F76Y/H45Y/I96F/K41T/L162R/M171V/P40S/Q125H/Q178H/Q39Y/Q99D/R218S/R42G/S66Y/V115G/W38E); assay type: binding
[3] = target: DRB1*1501 (Homo sapiens, UniProt P01903+P01911); assay type: binding
[4] = target: DRB5*0101 (Homo sapiens, UniProt P01903+Q30154); settings: Binding affinity DRB5 *0101
[5] = target: DRB1*0901 (Homo sapiens, UniProt P01903+P01911, A100R/A103E/D57H/D86V/F55Y/F60I/F76Y/I96F/K127E/L162R/M171V/P40D/Q125H/Q99R/R33Q/R42F/S133A/S66N/T210M/V115G/W38K/Y107V/Y59G/Y89S); assay type: binding
[6] = target: DRB1*1101 (Homo sapiens, UniProt P01903+P01911, A100R/A169T/A87E/I96F/K41T/L162R/M171V/P40S/Q125H/Q178H/Q39Y/Q99D/R42S/S66Y/T262R/V115G/W38E); settings: Binding affinity DRB1 *1101
Chain of DRB1*1101 (P01903 26-254 limits assumed, other chains not shown): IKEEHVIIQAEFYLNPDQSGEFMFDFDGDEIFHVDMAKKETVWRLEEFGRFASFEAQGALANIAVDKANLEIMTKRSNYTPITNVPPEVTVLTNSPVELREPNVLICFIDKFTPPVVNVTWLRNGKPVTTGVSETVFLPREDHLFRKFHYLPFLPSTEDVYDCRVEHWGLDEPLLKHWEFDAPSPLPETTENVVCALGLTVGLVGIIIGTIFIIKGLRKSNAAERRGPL

[7] = target: DR7 (DRB1*0701) (Homo sapiens, UniProt P01903+P01911, A100R/A102G/A103Q/D57E/D86V/E43K/F76Y/K127E/L162R/M171V/P40G/Q125H/Q99D/R33Q/R42Y/R54Q/S133A/S66F/T210M/V115G/Y107V/Y59L/Y89S); assay type: binding

Molecule | IC50 [1] | IC50 [2] | IC50 [3] | IC50 [4] | IC50 [5] | IC50 [6] | IC50 [7]
CC[C@H](C)[C@H](NC(=O)[C@H](CO)NC(=O)[C@H](CC(N)=O)NC(=O)[C@H](C)NC(=O)[C@H](CC(C)C)NC(=O)[C@H](CCC(=O)O)NC(=O)[C@H](Cc1ccccc1)NC(=O)[C@@H](N)C(C)C)C(=O)N[C@H](C(=O)N[C@@H](CC(C)C)C(=O)N1CCC[C@H]1C(=O)N[C@@H](Cc1ccccc1)C(=O)N[C@@H](CC(=O)O)C(=O)N[C@@H](CS)C(=O)N[C@@H](CCCNC(=N)N)C(=O)O)C(C)C [Peptide 68.0124] | 0.525 µM | > 20 µM |  |  |  |  | 
CC(C)C[C@H](NC(=O)CNC(=O)[C@H](Cc1ccccc1)NC(=O)[C@H](CCC(=O)O)NC(=O)[C@H](CCCCN)NC(=O)[C@@H](N)Cc1c[nH]c2ccccc12)C(=O)N[C@@H](CC(=O)O)C(=O)N[C@@H](CO)C(=O)N[C@H](C(=O)N[C@@H](CCC(=O)O)C(=O)N[C@@H](CC(C)C)C(=O)N[C@@H](C)C(=O)N[C@@H](Cc1c[nH]cn1)C(=O)N[C@@H](Cc1ccc(O)cc1)C(=O)N[C@@H](CC(=O)O)C(=O)O)C(C)C [Peptide 68.0088] | > 20 µM |  | > 20 µM | > 20 µM |  |  | 
PRSLQCVSLHLLSND [Peptide 68.0016] | 3.86 µM |  |  | > 20 µM | > 20 µM |  | 
LTELYFEKGEYFVEM [Peptide 68.0153] | 12.7 µM |  | > 20 µM |  | > 20 µM | > 20 µM | 
GKVFRGNKVKNAQLA [Peptide 68.0096] | > 20 µM |  |  |  | > 20 µM |  | 
CC[C@H](C)[C@H](NC(=O)[C@@H](NC(=O)[C@@H](N)CO)C(C)C)C(=O)N[C@@H](CC(C)C)C(=O)N[C@@H](CC(C)C)C(=O)NCC(=O)N[C@@H](CCCNC(=N)N)C(=O)N[C@@H](Cc1c[nH]cn1)C(=O)N[C@@H](CO)C(=O)N[C@@H](CC(C)C)C(=O)N[C@@H](Cc1ccccc1)C(=O)N[C@@H](Cc1c[nH]cn1)C(=O)N1CCC[C@H]1C(=O)N[C@@H](CCC(=O)O)C(=O)N[C@@H](CC(=O)O)C(=O)O [Peptide 68.0067] | 0.091 µM |  |  |  |  |  | > 20 µM
CC[C@H](C)[C@H](NC(=O)[C@H](CO)NC(=O)[C@H](CC(C)C)NC(=O)[C@@H](NC(=O)[C@H](CC(C)C)NC(=O)[C@H](CC(=O)O)NC(=O)[C@H](Cc1c[nH]c2ccccc12)NC(=O)[C@@H](N)CCSC)C(C)C)C(=O)N[C@@H](C)C(=O)N[C@@H](CC(C)C)C(=O)N[C@@H](CO)C(=O)N[C@H](C(=O)NCC(=O)N[C@@H](CS)C(=O)N[C@H](C(=O)O)[C@@H](C)O)C(C)C [Peptide 68.0001] | 4.58 µM | > 20 µM |  | > 20 µM |  | > 20 µM | 
CSCC[C@H](NC(=O)[C@H](CC(C)C)NC(=O)[C@@H]1CCCN1C(=O)[C@@H](NC(=O)[C@H](CS)NC(=O)[C@H](CC(=O)O)NC(=O)[C@@H](NC(=O)[C@H](CCCNC(=N)N)NC(=O)[C@H](CC(C)C)NC(=O)[C@@H](NC(=O)[C@H](Cc1ccc(O)cc1)NC(=O)[C@@H](N)CC(N)=O)[C@@H](C)O)C(C)C)[C@@H](C)O)C(=O)N[C@@H](Cc1ccc(O)cc1)C(=O)N[C@@H](CO)C(=O)N[C@@H](CC(C)C)C(=O)O [Peptide 68.0112] | 0.594 µM |  |  | > 20 µM | > 20 µM |  | > 20 µM
CC[C@H](C)[C@H](NC(=O)[C@H](CO)NC(=O)[C@H](CO)NC(=O)[C@H](CC(=O)O)NC(=O)[C@H](C)NC(=O)[C@H](CC(N)=O)NC(=O)[C@@H](NC(=O)[C@H](Cc1ccc(O)cc1)NC(=O)[C@H](C)NC(=O)[C@@H](NC(=O)CN)C(C)C)[C@@H](C)CC)C(=O)N[C@@H](CCC(=O)O)C(=O)NCC(=O)N[C@@H](CC(N)=O)C(=O)N[C@@H](Cc1ccc(O)cc1)C(=O)O [Peptide 68.0110] | 5.49 µM | > 20 µM |  | > 20 µM |  | > 20 µM | 
CC[C@H](C)[C@H](NC(=O)CNC(=O)[C@H](CCC(N)=O)NC(=O)[C@H](CC(C)C)NC(=O)[C@@H](NC(=O)CNC(=O)[C@H](CC(N)=O)NC(=O)[C@H](CS)NC(=O)[C@@H](NC(=O)[C@H](CC(C)C)NC(=O)[C@@H]1CCCN1C(=O)CN)C(C)C)C(C)C)C(=O)N[C@H](C(=O)N[C@@H](CO)C(=O)N[C@@H](Cc1c[nH]c2ccccc12)C(=O)O)[C@@H](C)O [Peptide 68.0080] | 1.88 µM |  |  |  | > 20 µM |  | 
CC[C@H](C)[C@H](NC(=O)[C@H](CO)NC(=O)[C@H](CO)NC(=O)[C@H](CC(=O)O)NC(=O)[C@H](C)NC(=O)[C@H](CC(N)=O)NC(=O)[C@@H](NC(=O)[C@H](Cc1ccc(O)cc1)NC(=O)[C@H](C)NC(=O)[C@@H](N)C(C)C)[C@@H](C)CC)C(=O)N[C@@H](CCC(=O)O)C(=O)NCC(=O)N[C@@H](CC(N)=O)C(=O)N[C@@H](Cc1ccc(O)cc1)C(=O)N[C@H](C(=O)O)[C@@H](C)O [Peptide 68.0177] | 8.25 µM | > 20 µM | > 20 µM | > 20 µM |  | > 20 µM | 
EDFFKLERDMKINCS [Peptide 68.0167] | > 20 µM |  | > 20 µM |  | > 20 µM |  | 
CC[C@H](C)[C@H](NC(=O)[C@H](CCC(=O)O)NC(=O)[C@H](CC(N)=O)NC(=O)CNC(=O)[C@H](CC(=O)O)NC(=O)[C@H](CCC(=O)O)NC(=O)[C@H](CC(N)=O)NC(=O)[C@@H](NC(=O)[C@@H](NC(=O)[C@H](CO)NC(=O)[C@@H](NC(=O)[C@@H](N)Cc1ccc(O)cc1)[C@@H](C)CC)[C@@H](C)CC)[C@@H](C)CC)C(=O)N[C@@H](Cc1ccccc1)C(=O)N[C@@H](CC(N)=O)C(=O)N[C@H](C(=O)O)[C@@H](C)O [Peptide 68.0165] | > 20 µM | > 20 µM |  | > 20 µM | > 20 µM | > 20 µM | > 20 µM
CC[C@H](C)[C@H](NC(=O)[C@H](CO)NC(=O)[C@@H](NC(=O)CNC(=O)[C@H](CCC(=O)O)NC(=O)[C@@H]1CCCN1)C(C)C)C(=O)N[C@@H](Cc1c[nH]c2ccccc12)C(=O)N[C@@H](CC(N)=O)C(=O)N1CCC[C@H]1C(=O)N[C@H](C(=O)N[C@@H](CC(C)C)C(=O)N[C@@H](CC(C)C)C(=O)N[C@@H](Cc1c[nH]c2ccccc12)C(=O)N[C@@H](CCC(N)=O)C(=O)N1CCC[C@H]1C(=O)O)[C@@H](C)CC [Peptide 68.0033] | 7.97 µM | > 20 µM |  | > 20 µM | > 20 µM | > 20 µM | 
IGYYDAQKLLEKMGG [Peptide 68.0103] | > 20 µM |  |  |  | > 20 µM | > 20 µM | > 20 µM
CSCC[C@H](NC(=O)[C@H](CCC(N)=O)NC(=O)[C@H](CC(C)C)NC(=O)CNC(=O)[C@H](CO)NC(=O)[C@@H](NC(=O)[C@@H](NC(=O)[C@@H](NC(=O)[C@@H](N)CC(=O)O)[C@@H](C)O)[C@@H](C)O)C(C)C)C(=O)N[C@@H](C)C(=O)N[C@@H](CC(C)C)C(=O)N[C@@H](CC(=O)O)C(=O)N[C@H](C(=O)N[C@@H](Cc1ccc(O)cc1)C(=O)N[C@@H](CC(N)=O)C(=O)O)C(C)C [Peptide 68.0051] | 0.712 µM | > 20 µM |  | > 20 µM |  | > 20 µM | 
CC[C@H](C)[C@H](NC(=O)[C@@H](N)CC(C)C)C(=O)N[C@@H](CCSC)C(=O)N[C@@H](Cc1ccc(O)cc1)C(=O)N[C@@H](CO)C(=O)N[C@@H](C)C(=O)N[C@@H](Cc1c[nH]cn1)C(=O)N[C@@H](CC(=O)O)C(=O)N[C@H](C(=O)N[C@H](C(=O)N[C@H](C(=O)N[C@@H](CO)C(=O)NCC(=O)N[C@@H](CC(C)C)C(=O)N[C@@H](CCC(N)=O)C(=O)O)C(C)C)[C@@H](C)O)[C@@H](C)O [Peptide 68.0050] | > 20 µM | > 20 µM |  | > 20 µM |  | > 20 µM | 
CC[C@H](C)[C@H](NC(=O)[C@H](CO)NC(=O)[C@H](CC(N)=O)NC(=O)[C@H](C)NC(=O)[C@H](CC(C)C)NC(=O)[C@H](CCC(=O)O)NC(=O)[C@H](Cc1ccccc1)NC(=O)[C@@H](NC(=O)[C@H](CCSC)NC(=O)CN)C(C)C)C(=O)N[C@H](C(=O)N[C@@H](CC(C)C)C(=O)N1CCC[C@H]1C(=O)N[C@@H](Cc1ccccc1)C(=O)N[C@@H](CC(=O)O)C(=O)O)C(C)C [Peptide 68.0123] | 0.098 µM |  |  |  |  | > 20 µM | 
CSCC[C@H](NC(=O)[C@H](CC(C)C)NC(=O)[C@@H]1CCCN1C(=O)[C@@H](NC(=O)[C@@H](N)CS)[C@@H](C)O)C(=O)N[C@@H](Cc1ccc(O)cc1)C(=O)N[C@@H](CO)C(=O)N[C@@H](CC(C)C)C(=O)N[C@H](C(=O)N[C@@H](Cc1c[nH]cn1)C(=O)N[C@@H](CC(N)=O)C(=O)N[C@@H](CC(C)C)C(=O)N[C@H](C(=O)N[C@@H](CCCCN)C(=O)N[C@@H](CCC(=O)O)C(=O)O)[C@@H](C)O)C(C)C [Peptide 68.0113] | 1.73 µM |  |  |  |  |  | 
